Key:
Assay in all cases: area under the viability dose-response curve (AUC) (AUC (arbitrary units, max 500 = no viability loss)); higher = less sensitive (higher viability)
Settings in all cases: exposure time: 120 h; concentration range: 0.1 nM - 10 µM, 6 doses
8F1 = test system: 8F1 (fetal-I hepatoblastoma organoid with intermediate liver markers)
Protocol: (§1)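 Patient-derived hepatoblastoma tumor organoids (about 50 organoids per well, 384-well plates, medium with 5% BME) were treated with the PMC pediatric cancer drug library. Each drug was tested in duplicate at 6 concentrations (0.1 nM to 10 µM, 10-fold steps).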

135F2 = test system: 135F2 (fetal-II hepatoblastoma organoid with high liver markers)
Protocol: as §1

13F2 = test system: 13F2 (fetal-II hepatoblastoma organoid with high liver markers)
Protocol: as §1

13E = test system: 13E (embryonal-type hepatoblastoma organoid)
Protocol: as §1

27F1 = test system: 27F1 (fetal-I hepatoblastoma organoid with intermediate liver markers)
Protocol: as §1

22E = test system: 22E (embryonal-type hepatoblastoma organoid)
Protocol: as §1

10F2 = test system: 10F2 (fetal-II hepatoblastoma organoid with high liver markers)
Protocol: as §1

3E = test system: 3E (embryonal-type hepatoblastoma organoid)
Protocol: as §1

17F1 = test system: 17F1 (fetal-I hepatoblastoma organoid with intermediate liver markers)
Protocol: as §1

17E = test system: 17E (embryonal-type hepatoblastoma organoid)
Protocol: as §1

96F1 = test system: 96F1 (fetal-I hepatoblastoma organoid with intermediate liver markers)
Protocol: as §1

| SMILES | area under the viability dose-response curve (8F1) | area under the viability dose-response curve (135F2) | area under the viability dose-response curve (13F2) | area under the viability dose-response curve (13E) | area under the viability dose-response curve (27F1) | area under the viability dose-response curve (22E) | area under the viability dose-response curve (10F2) | area under the viability dose-response curve (3E) | area under the viability dose-response curve (17F1) | area under the viability dose-response curve (17E) | area under the viability dose-response curve (96F1) |
| --- | --- | --- | --- | --- | --- | --- | --- | --- | --- | --- | --- |
| Cc1cccc(-c2nn3c(c2-c2ccnc4ccc(C(N)=O)cc24)CCC3)n1 [Galunisertib] | > 500 | 493 | > 500 | 493 | > 500 | 482 | 465 | > 500 | > 500 | > 500 | 481 |
| Cc1c(-c2c(-c3ccc(F)o3)sc3ncnc(O[C@H](Cc4ccccc4OCc4ccnn4CC(F)(F)F)C(=O)O)c23)ccc(OCCN2CCN(C)CC2)c1Cl | 485 | 351 | 239 | 367 | 428 | 388 | 185 | 234 | > 500 | 370 | > 500 |
| O=C(Nc1cnn2ccc(N3CCC[C@@H]3c3cc(F)ccc3F)nc12)N1CC[C@H](O)C1 [Larotrectinib] | 473 | 495 | > 500 | 487 | > 500 | > 500 | > 500 | 450 | 467 | 453 | 481 |
| COc1cc(N2CCC(N3CCN(C)CC3)CC2)ccc1Nc1ncc(Cl)c(Nc2ccccc2P(C)(C)=O)n1 [Brigatinib] | 454 | 392 | 388 | 402 | 420 | 381 | 399 | 349 | 426 | 398 | 427 |
| NS(=O)(=O)OC[C@@H]1C[C@@H](n2ccc3c(N[C@H]4CCc5ccccc54)ncnc32)C[C@@H]1O [Pevonedistat] | 445 | 342 | 329 | 451 | 333 | 470 | 425 | 448 | 400 | 383 | 381 |
| CCOc1cc2ncc(C#N)c(Nc3ccc(OCc4ccccn4)c(Cl)c3)c2cc1NC(=O)/C=C/CN(C)C [Neratinib] | 449 | 462 | 319 | 464 | 362 | 453 | 234 | 444 | 431 | 424 | 416 |
| CC(C)c1c(-c2ccccc2)nc2c(C#N)c[nH]n2c1=O [CPI-455] | > 500 | > 500 | > 500 | > 500 | > 500 | > 500 | 469 | > 500 | 498 | > 500 | > 500 |
| O=C1NC(=O)[C@@H](c2cn3c4c(cccc24)CCC3)[C@@H]1c1c[nH]c2ccccc12 [Tivantinib] | 455 | 367 | 350 | 358 | 375 | 404 | 320 | 349 | 415 | 345 | 377 |
| CCOC(=O)CCNc1cc(N2CCc3ccccc3CC2)nc(-c2ccccn2)n1 [GSK J4] | 494 | 468 | 438 | 449 | > 500 | 476 | 493 | 445 | 483 | 452 | 492 |
| CN(Cc1cnc2nc(N)nc(N)c2n1)c1ccc(C(=O)N[C@@H](CCC(=O)O)C(=O)O)cc1 [Methotrexate] | 382 | 294 | 274 | 381 | 366 | 452 | 429 | 483 | 334 | 451 | 345 |
| CCn1c(-c2nonc2N)nc2cnc(Oc3cccc(NC(=O)c4ccc(OCCN5CCOCC5)cc4)c3)cc21 | 467 | 441 | 392 | 478 | 481 | 468 | 348 | 493 | 451 | 450 | 469 |
| C=CC(=O)Nc1cc(Nc2nccc(-c3cn(C)c4ccccc34)n2)c(OC)cc1N(C)CCN(C)C [Osimertinib] | 490 | 442 | 364 | 424 | 380 | 423 | 335 | 378 | 468 | 448 | 449 |
| C[C@H](NC(=O)c1c(N)nn2cccnc12)c1cc2cccc(C#Cc3cnn(C)c3)c2c(=O)n1-c1ccccc1 [IPI549] | > 500 | > 500 | 479 | 463 | > 500 | 477 | 459 | 428 | > 500 | 464 | 459 |
| CS(=O)(=O)c1ccc(C(=O)Nc2ccc(Cl)c(-c3ccccn3)c2)c(Cl)c1 [Vismodegib] | > 500 | 473 | 490 | 496 | 497 | 452 | 443 | > 500 | 489 | > 500 | 494 |
